Laboratory results: the CheMixHub viscosity set

Assay: xn = mol fraction of the nth substance listed

Clc1cccc2ccccc12 + CCCCCCO
viscosity [mPa·s], 101.33 kPa
Conditions | x1 = 0.1047 | x1 = 0.2004 | x1 = 0.3023 | x1 = 0.3992 | x1 = 0.5019 | x1 = 0.6012 | x1 = 0.6993 | x1 = 0.8002 | x1 = 0.9013
298.15 K | 3.951 | 3.68 | 3.366 | 3.133 | 2.903 | 2.781 | 2.706 | 2.638 | 2.647
303.15 K | 3.335 | 3.105 | 2.858 | 2.67 | 2.506 | 2.455 | 2.44 | 2.304 | 2.337
308.15 K | 2.608 | 2.423 | 2.248 | 2.084 | 1.971 | 1.951 | 1.942 | 1.969 | 2.066

COC(C)(C)C + CCCCCO
Conditions | viscosity [mPa·s]
298.15 K, 101.33 kPa, x1 = 0.0301 | 3.179
298.15 K, 101.33 kPa, x1 = 0.0484 | 3.008
298.15 K, 101.33 kPa, x1 = 0.1133 | 2.461
298.15 K, 101.33 kPa, x1 = 0.1663 | 2.091
298.15 K, 101.33 kPa, x1 = 0.2824 | 1.56
298.15 K, 101.33 kPa, x1 = 0.3286 | 1.346
298.15 K, 101.33 kPa, x1 = 0.3767 | 1.174
298.15 K, 101.33 kPa, x1 = 0.4229 | 1.052
298.15 K, 101.33 kPa, x1 = 0.4688 | 0.939
298.15 K, 101.33 kPa, x1 = 0.5137 | 0.843
298.15 K, 101.33 kPa, x1 = 0.5239 | 0.843
298.15 K, 101.33 kPa, x1 = 0.5817 | 0.725
298.15 K, 101.33 kPa, x1 = 0.6305 | 0.653
298.15 K, 101.33 kPa, x1 = 0.6824 | 0.587
298.15 K, 101.33 kPa, x1 = 0.7282 | 0.538
298.15 K, 101.33 kPa, x1 = 0.7788 | 0.487
298.15 K, 101.33 kPa, x1 = 0.8339 | 0.44
298.15 K, 101.33 kPa, x1 = 0.8897 | 0.398
298.15 K, 101.33 kPa, x2 = 0.0178 | 0.349
303.15 K, 101 kPa, x1 = 0.0401 | 2.675

Clc1cccc2ccccc12 + CCCCCO
viscosity [mPa·s], 101.33 kPa
Conditions | x1 = 0.1019 | x1 = 0.1914 | x1 = 0.3014 | x1 = 0.371 | x1 = 0.4944 | x1 = 0.6006 | x1 = 0.6961 | x1 = 0.7909 | x1 = 0.9013
298.15 K | 3.204 | 3.078 | 2.928 | 2.833 | 2.708 | 2.669 | 2.659 | 2.702 | 2.761
303.15 K | 2.83 | 2.704 | 2.555 | 2.473 | 2.388 | 2.364 | 2.358 | 2.393 | 2.464
308.15 K | 2.469 | 2.37 | 2.232 | 2.179 | 2.115 | 2.107 | 2.107 | 2.134 | 2.217

Clc1ccccc1 + CCCCCO
293.15 K, 101.33 kPa
Conditions | viscosity [mPa·s]
x2 = 0.0511 | 0.816
x2 = 0.1017 | 0.852
x2 = 0.1449 | 0.892
x2 = 0.198 | 0.936
x2 = 0.2665 | 1.017
x2 = 0.3688 | 1.195
x2 = 0.4687 | 1.387
x2 = 0.5602 | 1.637
x2 = 0.5789 | 1.697
x2 = 0.7339 | 2.339
x2 = 0.8618 | 3.062
x2 = 0.9524 | 3.666

CCc1ccccc1 + CCCCO
298.15 K, 101.33 kPa
Conditions | viscosity [mPa·s]
x2 = 0.1608 | 0.666
x2 = 0.2901 | 0.735
x2 = 0.4235 | 0.849
x2 = 0.5335 | 0.999
x2 = 0.6392 | 1.183
x2 = 0.7407 | 1.435
x2 = 0.8339 | 1.756
x2 = 0.9191 | 2.126

COC(C)(C)C + CCCCO
viscosity [mPa·s], 101 kPa
Conditions | x1 = 0.1006 | x1 = 0.102 | x1 = 0.2 | x1 = 0.2998 | x1 = 0.3995 | x1 = 0.5111 | x1 = 0.6008 | x1 = 0.6996 | x1 = 0.7994 | x1 = 0.9005
298.15 K | – | 1.94 | 1.48 | 1.14 | 0.902 | 0.719 | 0.613 | 0.529 | 0.46 | 0.401
303.15 K | 1.695 | – | – | – | – | – | – | – | – | –

COCCOCCOCCOCCOC + CCCCO
viscosity [mPa·s], 101 kPa
Conditions | 298.15 K | 303.15 K | 308.15 K
x2 = 0.1013 | – | – | 2.525
x2 = 0.7991 | 2.165 | 1.945 | –

Clc1cccc2ccccc12 + CCCCO
viscosity [mPa·s], 101.33 kPa
Conditions | x1 = 0.1002 | x1 = 0.1997 | x1 = 0.2969 | x1 = 0.4016 | x1 = 0.5004 | x1 = 0.599 | x1 = 0.6949 | x1 = 0.8006 | x1 = 0.8969
298.15 K | 2.486 | 2.447 | 2.383 | 2.376 | 2.379 | 2.43 | 2.491 | 2.591 | 2.697
303.15 K | 2.176 | 2.149 | 2.11 | 2.102 | 2.109 | 2.153 | 2.207 | 2.301 | 2.414
308.15 K | 1.927 | 1.894 | 1.865 | 1.854 | 1.864 | 1.914 | 1.977 | 2.059 | 2.173

Clc1ccccc1 + CCCCOC(C)=O
viscosity [mPa·s], 101 kPa
Conditions | 298.15 K | 308.15 K
x2 = 0.0484 | 0.744 | 0.669
x2 = 0.1504 | 0.723 | 0.651
x2 = 0.2515 | 0.706 | 0.636
x2 = 0.349 | 0.692 | 0.624
x2 = 0.4447 | 0.682 | 0.614
x2 = 0.4933 | 0.678 | 0.61
x2 = 0.5503 | 0.674 | 0.605
x2 = 0.6502 | 0.669 | 0.599
x2 = 0.7514 | 0.667 | 0.595
x2 = 0.8498 | 0.668 | 0.593
x2 = 0.9417 | 0.671 | 0.593

N#CCCCCC#N + CCCCOC(C)=O
303.15 K, 101.33 kPa
Conditions | viscosity [mPa·s]
x1 = 0.0984 | 0.7145
x1 = 0.3003 | 1.052
x1 = 0.3857 | 1.281
x1 = 0.4963 | 1.663
x1 = 0.5929 | 2.082
x1 = 0.6974 | 2.631
x1 = 0.8455 | 3.61

CCc1ccccc1 + CCCO
viscosity [mPa·s], 101.33 kPa
Conditions | x2 = 0.3 | x2 = 0.5 | x2 = 0.7 | x2 = 0.9
303 K | 0.646 | 0.826 | 1.01 | 1.335
313 K | 0.561 | 0.697 | 0.839 | 1.084
323 K | 0.494 | 0.598 | 0.7 | 0.886

COC(C)(C)C + CCCO
Conditions | viscosity [mPa·s]
293.15 K, 101 kPa, x1 = 0.0599 | 1.835
298.15 K, 101 kPa, x1 = 0.0403 | 1.735
298.15 K, 101 kPa, x1 = 0.1495 | 1.275
298.15 K, 101.33 kPa, x1 = 0.0111 | 1.902
298.15 K, 101.33 kPa, x1 = 0.0293 | 1.804
298.15 K, 101.33 kPa, x1 = 0.0591 | 1.651
298.15 K, 101.33 kPa, x1 = 0.1133 | 1.416
298.15 K, 101.33 kPa, x1 = 0.1374 | 1.327
298.15 K, 101.33 kPa, x1 = 0.2501 | 0.998
298.15 K, 101.33 kPa, x1 = 0.3008 | 0.889
298.15 K, 101.33 kPa, x1 = 0.324 | 0.85
298.15 K, 101.33 kPa, x1 = 0.3581 | 0.792
298.15 K, 101.33 kPa, x1 = 0.3641 | 0.779
298.15 K, 101.33 kPa, x1 = 0.4004 | 0.729
298.15 K, 101.33 kPa, x1 = 0.4451 | 0.671
298.15 K, 101.33 kPa, x1 = 0.488 | 0.624
298.15 K, 101.33 kPa, x1 = 0.5535 | 0.562
298.15 K, 101.33 kPa, x1 = 0.6157 | 0.512
298.15 K, 101.33 kPa, x1 = 0.677 | 0.471
298.15 K, 101.33 kPa, x1 = 0.7585 | 0.427
298.15 K, 101.33 kPa, x1 = 0.8246 | 0.397
298.15 K, 101.33 kPa, x1 = 0.8813 | 0.378
298.15 K, 101.33 kPa, x1 = 0.9491 | 0.356
298.15 K, 101.33 kPa, x2 = 0.014 | 0.344
